US20250368961A1, “Medium for producing a bile canaliculus and method for producing a bile canaliculus using the same” (INSTITUTE OF SCIENCE TOKYO, priority 2024, published 2025)

Experiments:
hepatocytes [1] = assay: Effect of each medium component on bile canaliculi formation (component removal); format: cell-based, human; settings: normal culture, Day 4; named component removed from the medium of the instant invention
Protocol: (§1) The frozen stock of human primary-cultured hepatocytes (PHHs) was thawed using commercially available thawing medium, and cell number was counted using trypan blue. To a 96-well plate coated with collagen I, PHHs were plated at 1.0×10^5 cells/well seeding density, using the medium of the instant invention, commercial medium A, commercial medium B, and commercial medium C such that the medium volume was 75 μL/well, and cultured at 37° C. under 5% CO2 condition. Four hours, 1 day, 2 days, and 4 days after seeding, the total amount of medium was replaced using each medium such that the medium volume was 75 μL/well, and the plate was cultured until Day 7 of culture.
Eight types of media in total: the medium of the instant invention, and media prepared by removing the main six components (HGF, OsM, DEX, Frk, DMSO, S-220) from the medium of the instant invention (in some case, 2 components were removed), were prepared, and each was used for performing normal culture. Phase contrast microscopy was performed on Day 4 of culture. […] Thereafter, the culture was washed three times with HBSS (+), the medium for each condition was added at 75 μL/well, then the culture was incubated in CO2 incubator (5% CO2, 37° C.) for 10 minutes and observed by fluorescence microscopy.

hepatocytes [2] = assay: Effectiveness of different K-Ras activating agents in bile canaliculi formation; format: cell-based, human; settings: normal culture, Day 4; agent added to medium of the instant invention without OsM
Protocol: as §1
Two types of media were used as controls: the medium of the instant invention without OsM (a negative control), and the medium of the instant invention (a positive control), and four more types of media were prepared based on the negative control to which a K-Ras activating agent other than OsM (IL-6, LIF, CNTF or Ras-GRF) was added (six types of media in total). Each medium was used for carrying out normal culture, and on culture Day 4 the medium was removed and 4 μmol/L CDFDA solution was added at 100 μL/well. The culture was incubated in a CO2 incubator (5% CO2, 37° C.) for 10 minutes, and observed using fluorescence microscopy.

Row | Substance | accumulation of CDFDA in bile canaliculi (fluorescence microscopy image) (hepatocytes [1]) | boundaries between cells (phase contrast microscope image) (hepatocytes [1]) | level of accumulation of CDFDA relative to OsM (positive control) (hepatocytes [2])
1 | oncostatin M [OsM] | almost no accumulation of CDFDA in the bile canaliculi | boundaries between cells could hardly be observed | 
2 | IL-6: IL-6 family cytokine, K-Ras activating agent other than OsM |  |  | comparable level of accumulation of CDFDA
